Literature values in US7449451B2, “Use of multiple antioxidant micronutrients as systemic biological radioprotective agents against potential ionizing radiation risks” (priority 2002, dated 2008).

Legend:
[1] = system: mammalian cells in culture
[2] = in vivo
mitotic cells = mitotic cells treated with cysteamine

In the case of calcium ascorbate [vitamin C], the radioprotectant value (animals and humans) is given as “marked radioprotectant value”.

For CC1=C(/C=C/C(C)=C/C=C/C(C)=C/C=C/C=C(C)/C=C/C=C(C)/C=C/C2=C(C)CCCC2(C)C)C(C)(C)CCC1 [natural beta-carotene, beta-carotene], the radioprotectant value (animals and humans) is listed as “marked radioprotectant value” and the “reduction of radiation-induced transformation” value [1] is listed as “most effectively reduces radiation-induced transformation”.

In the case of Cc1c(C)c2c(c(C)c1OC(=O)CCC(=O)O)CC[C@@](C)(CCC[C@H](C)CCC[C@H](C)CCCC(C)C)O2 [d-alpha tocopheryl succinate], the radioprotectant value (animals and humans) is listed as “marked radioprotectant value” and the “reduction of radiation-induced transformation” value [1] is listed as “actively reduces the incidence of radiation-induced transformation”.

For O=C(O)CCCCC1CCSS1 (stereo not drawn) [alpha lipoic acid], the “intracellular levels of glutathione” value (glutathione) is given as “actively increase the intracellular levels of glutathione without causing any toxicity” and the tolerability in humans (human beings) is given as “tolerated by humans very well”.

For CC(=O)N[C@@H](CS)C(=O)O [N-acetylcysteine], the “intracellular levels of glutathione” value (glutathione) is given as “actively increase the intracellular levels of glutathione without causing any toxicity” and the tolerability in humans (human beings) is given as “tolerated by humans very well”.

In the case of vitamin E, the “protection against lethal doses of cobalt-60” value (mice) is given as “good protection”.

In the case of N[C@@H](CCC(=O)N[C@@H](CS)C(=O)NCC(=O)O)C(=O)O [Glutathione, glutathione], the “hydrolysis in the intestine when ingested” value [2] is listed as “completely hydrolyzed in the intestine”.

For NCCS [cysteamine], the “resistance of mitotic cells to radiation” value (mitotic cells) is given as “became very resistant to radiation”, the “toxicity when administered to human beings” value (human beings; humans) is given as “extremely toxic” and the “protection against bone marrow and gastrointestinal radiation syndromes” value (animals) is given as “protects animals against bone marrow (2, 31) and gastrointestinal (32) radiation syndromes”.
